This passage reports IC50 and inhibition results from patent US6130239A, “4-Alkenyl- and 4-alkynyloxindoles” (Hoffmann-La Roche Inc., priority 1999, dated 2000).

Structures can show the parent of a compound that is named as a salt. Bounds are passed on as bounds.

The target of one assay is T1, Cyclin E/CDK2 (Homo sapiens, UniProt P24941).
T1 construct: made in house; host or cells: insect cells
Briefly: CDK2 FlashPlate Assay (inhibition of Rb phosphorylation by Cyclin E/CDK2). It counts as biochemical. Particulars: Table IA; recombinant human Cyclin E/CDK2, Rb substrate, 25 minutes room temperature.
For the compound `CCC(C)(O)C#Cc1cccc2c1/C(=C/c1[nH]ccc1OC)C(=O)N2` (racemic) [D, rac-(Z)-1,3-Dihydro-4-(3-hydroxy-3-methyl-1-pentynyl)-3-[(3-methoxy-1H-pyrrol-2-yl)methylene]-2H-indol-2-one], the IC50 – broadly, the concentration that inhibits the measured activity by half – is less than 4 µM.

On to `CCCC(C)(O)C#Cc1cccc2c1/C(=C/c1[nH]ccc1OC)C(=O)N2` (racemic) [N, rac-(Z)-1,3-Dihydro-4-(3-hydroxy-3-methyl-1-hexynyl)-3-[(3-methoxy-1H-pyrrol-2-yl)methylene]-2H-indol-2-one], for which the IC50 is less than 4 µM. `COc1cc[nH]c1/C=C1\C(=O)Nc2cccc(C#CC(C)(O)CC(C)C)c21` (racemic) [O, rac-(Z)-1,3-Dihydro-4-(3,5-dimethyl-3-hydroxy-1-hexynyl)-3-[(3-methoxy-1H-pyrrol-2-yl)methylene]-2H-indol-2-one]: the IC50 was less than 4 µM.

Turning to `CCCCCC(O)C#Cc1cccc2c1/C(=C/c1[nH]ccc1OC)C(=O)N2` (racemic) [Q, rac-(Z)-1,3-Dihydro-4-(3-hydroxy-1-octynyl)-3-[(3-methoxy-1H-pyrrol-2-yl)methylene]-2H-indol-2-one], the IC50 is less than 4 µM.

As for `CCC(O)C#Cc1cccc2c1/C(=C/c1[nH]ccc1OC)C(=O)N2` (racemic) [R, rac-(Z)-1,3-Dihydro-4-(3-hydroxy-1-pentynyl)-3-[(3-methoxy-1H-pyrrol-2-yl)methylene]-2H-indol-2-one], the IC50 was less than 4 µM. The same measure, in the same setting: in the case of `COc1cc[nH]c1/C=C1\C(=O)Nc2cccc(C#CCCCCO)c21` [A, (Z)-1,3-Dihydro-4-(6-hydroxy-1-hexynyl)-3-[(3-methoxy-1H-pyrrol-2-yl)methylene]-2H-indol-2-one] it was less than 4 µM. Still for that read-out and setting: in the case of `COc1cc[nH]c1/C=C1\C(=O)Nc2cccc(C#CC3(O)CCCC3)c21` [AA, (Z)-1,3-Dihydro-4-[(1-hydroxycyclopentyl)ethynyl]-3-[(3-methoxy-1H-pyrrol-2-yl)methylene]-2H-indol-2-one] it was less than 4 µM; in that of `COc1cc[nH]c1/C=C1\C(=O)Nc2cccc(C#CCCO)c21` [C, (Z)-1,3-Dihydro-4-(4-hydroxy-1-butynyl)-3-[(3-methoxy-1H-pyrrol-2-yl)methylene]-2H-indol-2-one], less than 4 µM; in that of `COc1cc[nH]c1/C=C1\C(=O)Nc2cccc(C#CCCCO)c21` [Compound B, (Z)-1,3-Dihydro-4-(5-hydroxy-1-pentynyl)-3-[(3-methoxy-1H-pyrrol-2-yl)methylene]-2H-indol-2-one], less than 4 µM. Same read-out and setting: the value for `COc1cc[nH]c1/C=C1\C(=O)Nc2ccc(N)c(C#CCO)c21` [Compound BB, (Z)-5-Amino-1,3-dihydro-4-(3-hydroxy-1-propynyl)-3-[(3-methoxy-1H-pyrrol-2-yl)methylene]-2H-indol-2-one] was less than 4 µM. `COc1cc[nH]c1/C=C1\C(=O)Nc2ccc(NC(=O)c3ccncc3)c(C#CCO)c21` [DD, (Z)-N-[2,3-Dihydro-4-(3-hydroxy-1-propynyl)-3-[(3-methoxy-1H-pyrrol-2-yl)methylene]-2-oxo-1H-indol-5-yl]-4-pyridinecarboxamide]: the 50% inhibitory concentration (IC50) was less than 4 µM. Still for that read-out and setting: in the case of `COC(=O)CCCC#Cc1cccc2c1/C(=C/c1[nH]ccc1OC)C(=O)N2` [E, (Z)-6-[2,3-Dihydro-3-[(3-methoxy-1H-pyrrol-2-yl)methylene]-2-oxo-1H-indol-4-yl]-5-hexynoic acid methyl ester] it was less than 4 µM.

Regarding `C#CCOCCO` [Example 21, 3-(2-Hydroxyethoxy)-1-propyne], the IC50 is less than 4 µM. On the same count and under the same terms, the value for `COC(=O)CCC#Cc1cccc2c1/C(=C/c1[nH]ccc1OC)C(=O)N2` [F, (Z)-5-[2,3-Dihydro-3-[(3-methoxy-1H-pyrrol-2-yl)methylene]-2-oxo-1H-indol-4-yl]-4-pentynoic acid methyl ester] was less than 4 µM. Still for that read-out and setting: the value for `COC(=O)CCC#Cc1c(N)ccc2c1/C(=C/c1[nH]ccc1OC)C(=O)N2` [FF, (Z)-5-[5-Amino-2,3-dihydro-3-[(3-methoxy-1H-pyrrol-2-yl)methylene]-2-oxo-1H-indol-4-yl]-4-pentynoic acid methyl ester] was less than 4 µM; that for `COc1cc[nH]c1/C=C1\C(=O)Nc2cccc(C#CCCCC(=O)O)c21` [G, (Z)-6-[2,3-Dihydro-3-[(3-methoxy-1H-pyrrol-2-yl)methylene]-2-oxo-1H-indol-4-yl]-5-hexynoic acid] was less than 4 µM.

As to `COc1cc[nH]c1/C=C1\C(=O)Nc2cccc(C#CCCC(=O)O)c21` [H, (Z)-5-[2,3-Dihydro-3-[(3-methoxy-1H-pyrrol-2-yl)methylene]-2-oxo-1H-indol-4-yl]-4-pentynoic acid], the IC50 was less than 4 µM. Still for that read-out and setting: the value for `COc1cc[nH]c1/C=C1\C(=O)Nc2ccc(NC(=O)Cc3cccs3)c(C#CCCC(=O)O)c21` [HH, (Z)-5-[2,3-Dihydro-3-[(3-methoxy-1H-pyrrol-2-yl)methylene]-2-oxo-5-[(2-thienylacetyl)amino]-1H-indol-4-yl]-4-pentynoic acid] was less than 4 µM. Same read-out and setting: the value for `COc1cc[nH]c1/C=C1\C(=O)Nc2cccc(C#CCN)c21` [II, (Z)-4-(3-Amino-1-propynyl)-1,3-dihydro-3-[(3-methoxy-1H-pyrrol-2-yl)methylene]-2H-indol-2-one trifluoroacetate salt] was less than 4 µM. Still for that read-out and setting: the value for `COc1cc[nH]c1/C=C1\C(=O)Nc2cccc(C#CCCC(N)=O)c21` [J, (Z)-5-[2,3-Dihydro-3-[(3-methoxy-1H-pyrrol-2-yl)methylene]-2-oxo-1H-indol-4-yl]-4-pentynamide] was less than 4 µM; that for `CNCC#Cc1cccc2c1/C(=C/c1[nH]ccc1OC)C(=O)N2` [JJ, (Z)-1,3-Dihydro-3-[(3-methoxy-1H-pyrrol-2-yl)methylene]-4-[3-(N-methylamino)-1-propynyl]-2H-indol-2-one trifluoroacetate salt] was less than 4 µM; that for `COc1cc[nH]c1/C=C1\C(=O)Nc2cccc(C#CCCCC(N)=O)c21` [K, (Z)-6-[2,3-Dihydro-3-[(3-methoxy-1H-pyrrol-2-yl)methylene]-2-oxo-1H-indol-4-yl]-5-hexynamide] was less than 4 µM. For the compound `COc1cc[nH]c1/C=C1\C(=O)Nc2cccc(C#CCNCc3ccccc3)c21` [KK, (Z)-1,3-Dihydro-3-[(3-methoxy-1H-pyrrol-2-yl)methylene]-4-[3-(N-phenylmethylamino)-1-propynyl]-2H-indol-2-one], the IC50 is less than 4 µM.

As for `COc1cc[nH]c1/C=C1\C(=O)Nc2cccc(C#CC(C)(C)O)c21` [L, (Z)-1,3-Dihydro-4-(3-hydroxy-3-methyl-1-butynyl)-3-[(3-methoxy-1H-pyrrol-2-yl)methylene]-2H-indol-2-one], the IC50 is less than 4 µM.

As to `COC(=O)NCC#Cc1cccc2c1/C(=C/c1[nH]ccc1OC)C(=O)N2` [LL, (Z)-[3-[2,3-Dihydro-3-[(3-methoxy-1H-pyrrol-2-yl)methylene]-2-oxo-1H-indol-4-yl]-2-propynyl]carbamic acid methyl ester], the IC50 was less than 4 µM.

Regarding `COc1cc[nH]c1/C=C1\C(=O)Nc2cccc(C#CC3(O)CCCCC3)c21` [M, (Z)-1,3-Dihydro-4-[(1-hydroxycyclohexyl)ethynyl]-3-[(3-methoxy-1H-pyrrol-2-yl)methylene]-2H-indol-2-one], the IC50 was less than 4 µM.

On to `COc1cc[nH]c1/C=C1\C(=O)Nc2cccc(C#CCOC(N)=O)c21` [MM, (Z)-Carbamic acid 3-[2,3-dihydro-3-[(3-methoxy-1H-pyrrol-2-yl)methylene]-2-oxo-1H-indol-4-yl]-2-propynyl ester], for which the IC50 was less than 4 µM. Consider `CNC(=O)OCC#Cc1cccc2c1/C(=C/c1[nH]ccc1OC)C(=O)N2` [NN, (Z)-N-Methylcarbamic acid 3-[2,3-dihydro-3-[(3-methoxy-1H-pyrrol-2-yl)methylene]-2-oxo-1H-indol-4-yl]-2-propynyl ester], for which the IC50 is less than 4 µM. On the same count and under the same terms, the value for `CCCCC[C@H](O)C#Cc1cccc2c1/C(=C/c1[nH]ccc1OC)C(=O)N2` [U, (S)-(Z)-1,3-Dihydro-4-(3-hydroxy-1-octynyl)-3-[(3-methoxy-1H-pyrrol-2-yl)methylene]-2H-indol-2-one] was less than 4 µM; that for `COC(=O)C(CC#Cc1cccc2c1/C(=C/c1[nH]ccc1OC)C(=O)N2)C(=O)OC` [V, (Z)-[3-[2,3-Dihydro-3-[(3-methoxy-1H-pyrrol-2-yl)methylene]-2-oxo-1H-indol-4-yl]-2-propynyl]propanedioic acid dimethyl ester] was less than 4 µM; that for `COc1cc[nH]c1/C=C1\C(=O)Nc2cccc(C#CCC(C(=O)O)C(=O)O)c21` [W, (Z)-[3-[2,3-Dihydro-3-[(3-methoxy-1H-pyrrol-2-yl)methylene]-2-oxo-1H-indol-4-yl]-2-propynyl]propanedioic acid] was less than 4 µM. In the case of `COCC#Cc1cccc2c1/C(=C/c1[nH]ccc1OC)C(=O)N2` [X, (Z)-1,3-Dihydro-4-(3-methoxy-1-propynyl)-3-[(3-methoxy-1H-pyrrol-2-yl)methylene]-2H-indol-2-one], the IC50 is less than 4 µM.

In the case of `COc1cc[nH]c1/C=C1\C(=O)Nc2cccc(C#CCO)c21` [Y, (Z)-1,3-Dihydro-4-(3-hydroxy-1-propynyl)-3-[(3-methoxy-1H-pyrrol-2-yl)methylene]-2H-indol-2-one], the IC50 is less than 4 µM. The same measure, in the same setting: in the case of `Cc1nc[nH]c1/C=C1\C(=O)Nc2ccc(F)c(C#CCNC(N)=O)c21` [ZZ, (Z)-[3-[5-fluoro-2,3-dihydro-3-[(4-methyl-1H-imidazol-5-yl)methylene]-2-oxo-1H-indol-4-yl]-2-propynyl]urea] it was less than 4 µM.

The same assay, now with this note: Table IB; concentration ≤1.0 μM.
Take `COC(=O)CCC#Cc1c([N+](=O)[O-])ccc2c1/C(=C/c1[nH]ccc1OC)C(=O)N2` [EE, (Z)-5-[2,3-Dihydro-3-[(3-methoxy-1H-pyrrol-2-yl)methylene]-5-nitro-2-oxo-1H-indol-4-yl]-4-pentynoic acid methyl ester]: the inhibition (as a rule, the relative decrease from the control value, in per cent) at 1 µM is greater than 60%. The same measure, in the same setting: the value for `COc1cc[nH]c1/C=C1\C(=O)Nc2ccc([N+](=O)[O-])c(C#CCO)c21` [Z, (Z)-1,3-Dihydro-4-(3-hydroxy-1-propynyl)-3-[(3-methoxy-1H-pyrrol-2-yl)methylene]-5-nitro-2H-indol-2-one] was greater than 90%.
